# Biological target: T1, STING (Homo sapiens, UniProt Q86WV6, G230A/H232R/R293Q/R71H)
# T1 construct: host or cells: THP1-Dual KO-IFNAR2 cells
# Test: STING reporter assay: luciferase reporter activity in THP1-Dual KO-IFNAR2 cells stimulated with 2′3′cGAMP
# Type: cell-based
# Conditions: 15 μM 2′3′cGAMP, 24h, read-out: hSTING EC50
# Description: STING pathway activation by the compounds described herein was measured using THP 1-Dual™ cells (KO-IFNAR2).
# THP1-Dual™ KO-IFNAR2 Cells (obtained from invivogen) were maintained in RPMI, 10% FCS, 5 ml P/S, 2 mM L-glut, 10 mM Hepes, and 1 mM sodium pyruvate. Compounds were spotted in empty 384 well tissue culture plates (Greiner 781182) by Echo for a final concentration of 0.0017-100 μM. Cells were plated into the TC plates at 40 μL per well, 2×10E6 cells/mL. For activation with STING ligand, 2′3′cGAMP (MW 718.38, obtained from Invivogen), was prepared in Optimem media.
# The following solutions were prepared for each 1×384 plate: • Solution A: 2 mL Optimem with one of the following stimuli: • 60 μL of 10 mM 2′3′cGAMP→150 μM stock • Solution B: 2 mL Optimem with 60 μL Lipofectamine 2000→Incubate 5 min at RT
# 2 mL of solution A and 2 ml Solution B was mixed and incubated for 20 min at room temperature (RT). 20 μL of transfection solution (A+B) was added on top of the plated cells, with a final 2′3′cGAMP concentration of 15 μM. The plates were then centrifuged immediately at 340 g for 1 minute, after which they were incubated at 37° C., 5% CO2, >98% humidity for 24h. Luciferase reporter activity was then measured. EC50 values were calculated by using standard methods known in the art.
# Luciferase reporter assay: 10 μL of supernatant from the assay was transferred to white 384-plate with flat bottom and squared wells. One pouch of QUANTI-Luc™ Plus was dissolved in 25 mL of water. 100 μL of QLC Stabilizer per 25 mL of QUANTI-Luc™ Plus solution was added. 50 μL of QUANTI-Luc™ Plus/QLC solution per well was then added. Luminescence was measured on a Platereader (e.g., Spectramax I3X (Molecular Devices GF3637001)).
# Luciferase reporter activity was then measured. EC50 values were calculated by using standard methods known in the art.
# T1 sequence (Q86WV6 whole entry R71H/G230A/H232R/R293Q): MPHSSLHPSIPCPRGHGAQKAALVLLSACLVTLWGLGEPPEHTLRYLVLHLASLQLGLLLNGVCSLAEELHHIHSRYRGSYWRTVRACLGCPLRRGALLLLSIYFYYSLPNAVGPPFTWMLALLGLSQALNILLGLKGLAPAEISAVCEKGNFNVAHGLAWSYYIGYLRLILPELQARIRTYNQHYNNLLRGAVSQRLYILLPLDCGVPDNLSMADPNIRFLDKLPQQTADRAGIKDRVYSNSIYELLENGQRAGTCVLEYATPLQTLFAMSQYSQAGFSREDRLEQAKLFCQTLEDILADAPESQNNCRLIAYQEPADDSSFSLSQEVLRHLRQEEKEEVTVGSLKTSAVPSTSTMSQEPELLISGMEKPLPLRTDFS
row,EC50 [µM],Compound
1,1 to 5,"CCC(=O)Nc1c[nH]c2ccc(-c3cc(C#N)cs3)cc12 [Compound 136, N-(5-(4-cyanothiophen-2-yl)-1H-indol-3-yl)propionamide]"
2,5 to 100,"CCC(=O)Nc1c[nH]c2ccc(-c3cnn(C4CCCC4)c3)cc12 [Compound 137, N-(5-(1-cyclopentyl-1H-pyrazol-4-yl)-1H-indol-3-yl)propionamide]"
3,5 to 100,"CCC(=O)Nc1c[nH]c2ccc(-c3cnn(-c4ccccn4)c3)cc12 [Compound 138, N-(5-(1-(pyridin-2-yl)-1H-pyrazol-4-yl)-1H-indol-3-yl)propionamide]"
4,0.2 to 1,"CCC(=O)Nc1c[nH]c2ccc(-c3cnn(-c4ccc(C(F)(F)F)cc4)c3)cc12 [Compound 139, N-(5-(1-(4-(trifluoromethyl)phenyl)-1H-pyrazol-4-yl)-1H-indol-3-yl)propionamide]"
5,5 to 100,"CCC(=O)Nc1c[nH]c2ccc(C3=CCN(c4ccccn4)CC3)cc12 [Compound 140, N-(5-(3,6-dihydro-2H-[1,2′-bipyridin]-4-yl)-1H-indol-3-yl)propionamide]"
6,5 to 100,"CCC(=O)Nc1c[nH]c2ccc(C3=CCCCC3)cc12 [Compound 141, N-(5-(cyclohex-1-en-1-yl)-1H-indol-3-yl)propionamide]"
7,1 to 5,"CCC(=O)Nc1c[nH]c2ccc(-c3ccnn3C)cc12 [Compound 142, N-(5-(1-methyl-1H-pyrazol-5-yl)-1H-indol-3-yl)propionamide]"
8,1 to 5,"CCC(=O)Nc1c[nH]c2ccc(-c3ccc(OC(F)(F)F)cc3)cc12 [Compound 143, N-(5-(4-(trifluoromethoxy)phenyl)-1H-indol-3-yl)propionamide]"
9,5 to 100,"CCC(=O)Nc1c[nH]c2ccc(-c3ccc(C4(C#N)CC4)cc3)cc12 [Compound 144, N-(5-(4-(1-cyanocyclopropyl)phenyl)-1H-indol-3-yl)propionamide]"
10,5 to 100,"CCC(=O)Nc1c[nH]c2ccc(-c3cccc(COC)c3)cc12 [Compound 145, N-(5-(3-(methoxymethyl)phenyl)-1H-indol-3-yl)propionamide]"
11,1 to 5,"CCC(=O)Nc1c[nH]c2ccc(-c3cccc(C4CC4)c3)cc12 [Compound 146, N-(5-(3-cyclopropylphenyl)-1H-indol-3-yl)propionamide]"
12,5 to 100,"CCC(=O)Nc1c[nH]c2ccc(-c3ccc(N4CCCC4)nc3)cc12 [Compound 147, N-(5-(6-(pyrrolidin-1-yl)pyridin-3-yl)-1H-indol-3-yl)propionamide]"
13,5 to 100,"CCC(=O)Nc1c[nH]c2ccc(-c3cnn(CC4CC4)c3)cc12 [Compound 148, N-(5-(1-(cyclopropylmethyl)-1H-pyrazol-4-yl)-1H-indol-3-yl)propionamide]"
14,0.2 to 1,"CCC(=O)Nc1c[nH]c2ccc(-c3cnn(-c4cccc(Cl)c4)c3)cc12 [Compound 149, N-(5-(1-(3-chlorophenyl)-1H-pyrazol-4-yl)-1H-indol-3-yl)propionamide]"
15,0.2 to 1,"CCC(=O)Nc1c[nH]c2ccc(-c3cnn(-c4ccccc4)c3)cc12 [Compound 150, N-(5-(1-phenyl-1H-pyrazol-4-yl)-1H-indol-3-yl)propionamide]"
16,0.04 to 0.2,"CCC(=O)Nc1c[nH]c2ccc(-c3cnn(-c4ccc(CC)cc4)c3)cc12 [Compound 151, N-(5-(1-(4-ethylphenyl)-1H-pyrazol-4-yl)-1H-indol-3-yl)propionamide]"

row,EC50 [µM],Compound
1,5 to 100,"CCC(=O)Nc1c[nH]c2ccc(-c3cnn(-c4ccc(CC)cc4)c3)nc12 [Compound 164, N-(5-(1-(4-ethylphenyl)-1H-pyrazol-4-yl)-1H-pyrrolo[3,2-b]pyridin-3-yl)propionamide]"
2,0.2 to 1,"CCc1ccc(-n2cc(-c3ccc4[nH]cc(NC(=O)C5CCCCO5)c4c3)cn2)cc1 (stereo not shown) [Compound 165, N-(5-(1-(4-ethylphenyl)-1H-pyrazol-4-yl)-1H-indol-3-yl)tetrahydro-2H-pyran-2-carboxamide]"
3,1 to 5,"CCc1ccc(-n2cc(-c3ccc4[nH]cc(NC(=O)C(O)C(F)(F)F)c4c3)cn2)cc1 (stereo not shown) [Compound 166, N-(5-(1-(4-ethylphenyl)-1H-pyrazol-4-yl)-1H-indol-3-yl)-3,3,3-trifluoro-2-hydroxypropanamide]"
4,0.04 to 0.2,"CC(=O)Nc1c[nH]c2ccc(-c3cnn(-c4ccc(CC(F)(F)F)cc4)c3)cc12 [Compound 167, N-(5-(1-(4-(2,2,2-trifluoroethyl)phenyl)-1H-pyrazol-4-yl)-1H-indol-3-yl)acetamide]"
5,0.2 to 1,"CC(=O)Nc1c[nH]c2ccc(-c3cnn(-c4ccc(Cl)c(Cl)c4)c3)cc12 [Compound 168, N-(5-(1-(3,4-dichlorophenyl)-1H-pyrazol-4-yl)-1H-indol-3-yl)acetamide]"
6,0.2 to 1,"CC(=O)Nc1c[nH]c2ccc(-c3cnn(-c4ccc(C5CC(F)(F)C5)c(Cl)c4)c3)cc12 [Compound 169, N-(5-(1-(3-chloro-4-(3,3-difluorocyclobutyl)phenyl)-1H-pyrazol-4-yl)-1H-indol-3-yl)acetamide]"
7,1 to 5,"CC(=O)Nc1c[nH]c2ccc(-c3cnn(-c4ccc(F)c(F)c4)c3)cc12 [Compound 170, N-(5-(1-(3,4-difluorophenyl)-1H-pyrazol-4-yl)-1H-indol-3-yl)acetamide]"
8,1 to 5,"CC(=O)Nc1c[nH]c2ccc(-c3cnn(-c4ccc(C5(C)CCCCC5)cc4)c3)cc12 [Compound 171, N-(5-(1-(4-(1-methylcyclohexyl)phenyl)-1H-pyrazol-4-yl)-1H-indol-3-yl)acetamide]"
9,0.04 to 0.2,"CC(=O)Nc1c[nH]c2ccc(-c3cnn(-c4ccc(C(F)(F)F)cc4Cl)c3)cc12 [Compound 172, N-(5-(1-(2-chloro-4-(trifluoromethyl)phenyl)-1H-pyrazol-4-yl)-1H-indol-3-yl)acetamide]"
10,0.2 to 1,"CC(C)(O)CC(=O)Nc1c[nH]c2ccc(-c3cnn(-c4ccc(C(F)(F)F)cc4)c3)cc12 [Compound 173, 3-hydroxy-3-methyl-N-(5-(1-(4-(trifluoromethyl)phenyl)-1H-pyrazol-4-yl)-1H-indol-3-yl)butanamide]"
11,0.2 to 1,"COCC(=O)Nc1c[nH]c2ccc(-c3cnn(-c4ccc(C(F)(F)F)cc4)c3)cc12 [Compound 174, 2-methoxy-N-(5-(1-(4-(trifluoromethyl)phenyl)-1H-pyrazol-4-yl)-1H-indol-3-yl)acetamide]"
12,0.2 to 1,"CC(=O)Nc1c[nH]c2ccc(-c3cnn([C@@H](C)c4cccc(C(F)(F)F)c4)c3)cc12 [Compound 175, (S)-N-(5-(1-(1-(3-(trifluoromethyl)phenyl)ethyl)-1H-pyrazol-4-yl)-1H-indol-3-yl)acetamide]"
13,0.2 to 1,"CC(=O)Nc1c[nH]c2ccc(-c3cnn([C@H](C)c4cccc(C(F)(F)F)c4)c3)cc12 [Compound 176, (R)-N-(5-(1-(1-(3-(trifluoromethyl)phenyl)ethyl)-1H-pyrazol-4-yl)-1H-indol-3-yl)acetamide]"
14,0.04 to 0.2,"COCCCC(=O)Nc1c[nH]c2ccc(-c3cnn(-c4ccc(C(F)(F)F)cc4)c3)cc12 [Compound 177, 4-methoxy-N-(5-(1-(4-(trifluoromethyl)phenyl)-1H-pyrazol-4-yl)-1H-indol-3-yl)butanamide]"
15,0.2 to 1,"CC(=O)Nc1c[nH]c2ccc(-c3cnn(C(C)c4ccc(C(F)(F)F)cc4)c3)cc12 (stereo not shown) [Compound 178, N-(5-(1-(1-(4-(trifluoromethyl)phenyl)ethyl)-1H-pyrazol-4-yl)-1H-indol-3-yl)acetamide]"

# Reference: US20230365553A1, “COMPOUNDS AND COMPOSITIONS FOR TREATING CONDITIONS ASSOCIATED WITH STING ACTIVITY” (IFM Due, Inc., priority 2020, published 2023)
